# Measurements: patent publication US7772271B2 (priority 2004, dated 2010)
row,SMILES,melting point [°C]
1,C[C@@H](OC(=O)Nc1ccc(-c2c(C#N)c3ccc(OC(=O)NC4CCCCC4)cc3n2C2CCC2)cc1)C1CC1 [Compound 3172],213 to 216
2,CC(C)NC(=O)Oc1ccc2c(C#N)c(-c3ccc(NC(=O)O[C@H](C)C4CC4)cc3)n(C3CCC3)c2c1 [Compound 3174],202 to 205
3,CC(C)(C)OC(=O)NS(=O)(=O)Nc1ccc(-c2c(C#N)c3ccc(N4CCOCC4)cc3n2C2CC2)cc1 [Compound 3175],171 to 175
4,CC(C)n1c(-c2ccc(NS(=O)(=O)Cc3ccc(C(F)(F)F)cc3)cc2)c(C#N)c2ccc(OC(F)F)cc21 [Compound 3178],224 to 225
5,CCCS(=O)(=O)Nc1ccc(-c2c(C#N)c3ccc(Oc4nccnc4C#N)cc3n2C2CCC2)cc1 [Compound 3181],218 to 220
6,N#Cc1c(-c2ccc(N(CCF)c3nc(C(F)(F)F)cs3)cc2)n(C2CCC2)c2cc(OCCF)ccc12 [Compound 3188],137 to 138
7,CCn1c(-c2ccc(N3CCCS3(=O)=O)cc2)c(C#N)c2ccc(Oc3nccnc3C#N)cc21 [Compound 3196],232 to 236
8,CCCS(=O)(=O)Nc1ccc(-c2c(C#N)c3ccc(N4CCCC4=O)cc3n2C2CCC2)cc1 [Compound 3198],279 to 282
9,CCCS(=O)(=O)Nc1ccc(-c2c(C#N)c3ccc(Oc4ncccc4C(F)(F)F)cc3n2C2CCC2)cc1 [Compound 3201],181 to 184
10,CCCS(=O)(=O)Nc1ccc(-c2c(C#N)c3ccc(-c4cnccc4OC)cc3n2C2CCC2)cc1 [Compound 3202],240 to 242
11,CCCS(=O)(=O)Nc1ccc(-c2c(C#N)c3ccc(-c4ccnn4C)cc3n2C2CCC2)cc1 [Compound 3203],241 to 242
12,N#Cc1nccnc1Oc1ccc2c(C#N)c(-c3ccc(NS(=O)(=O)NCC4CC4)cc3)n(C3CC3)c2c1 [Compound 3211],189 to 191
13,CC(C)Nc1ccc(-c2c(C#N)c3ccc(Oc4nccnc4C#N)cc3n2C2CC2)cc1 [Compound 3212],224 to 226
14,CC(C)n1c(-c2ccc(N3CCCCS3(=O)=O)cc2)c(C#N)c2ccc(N3CCOCC3)cc21 [Compound 3215],260 to 271
15,N#Cc1c(-c2ccc(N3CCCCS3(=O)=O)cc2)n(C2CC2)c2cc(Oc3ncccn3)ccc12 [Compound 3216],251 to 256
16,N#Cc1c(-c2ccc(N3CCCCS3(=O)=O)cc2)n(C2CCC2)c2cc(Oc3ncccn3)ccc12 [Compound 3217],212 to 223
17,N#Cc1c(-c2ccc(N3CCCCS3(=O)=O)cc2)n(C2CCC2)c2cc(Oc3cnccn3)ccc12 [Compound 3220],187 to 196

row,SMILES,melting point [°C]
1,CCOc1ccc2c(C#N)c(-c3ccc4c(c3)CCC(=O)N4)n(C3CCC3)c2c1 [Compound 3221],249 to 250
2,CC1CCc2cc(-c3c(C#N)c4ccc(Oc5ncccn5)cc4n3C3CCC3)ccc2NC1=O (centres unmarked) [Compound 3222],233 to 235
3,CCn1c(-c2ccc(N3CCCCCC3=O)cc2)c(C#N)c2ccc(OC(C)C)cc21 [Compound 3223],250 to 251
4,CCCS(=O)(=O)Nc1ccc(-c2c(C#N)c3ccc(Oc4nccnc4C#N)cc3n2CC2CC2)cc1 [Compound 3224],178 to 180
5,CC(C)CS(=O)(=O)Nc1ccc(-c2c(C#N)c3ccc(Oc4nccnc4C#N)cc3n2CC2CC2)cc1 [Compound 3225],194 to 197
6,CC(C)NC(=O)N(C(=O)NC(C)C)c1ccc(-c2c(C#N)c3ccc(-c4ccccn4)cc3n2C2CCC2)cc1 [Compound 3226],193 to 194
7,CCn1c(-c2ccc3c(c2)CCC(=O)N3)c(C#N)c2ccc(OC(C)C)cc21 [Compound 3227],148 to 150
8,CC(OC(=O)Nc1ccc(-c2c(C#N)c3ccc(OCCNS(C)(=O)=O)cc3n2C2CCC2)cc1)C1CC1 (centres unmarked) [Compound 3228],92 to 95
9,CCS(=O)(=O)NCCOc1ccc2c(C#N)c(-c3ccc(NC(=O)OC(C)C4CC4)cc3)n(C3CCC3)c2c1 (centres unmarked) [Compound 3229],88 to 91
10,CCn1c(-c2ccc(NC(=O)OC(C)C)cc2)c(C#N)c2ccc(OC3CCS(=O)(=O)CC3)cc21 [Compound 3230],253 to 257
11,CCn1c(-c2ccc(NC(=O)O[C@H](C)C3CC3)cc2)c(C#N)c2ccc(OC3CCS(=O)(=O)CC3)cc21 [Compound 3231],189 to 196
12,C[C@@H](OC(=O)Nc1ccc(-c2c(C#N)c3ccc(OC4CCS(=O)(=O)CC4)cc3n2CC2CC2)cc1)C1CC1 [Compound 3233],193 to 198
13,CC(C)n1c(-c2ccc(NC(=O)O[C@H](C)C3CC3)cc2)c(C#N)c2ccc(OC3CCS(=O)(=O)CC3)cc21 [Compound 3235],249 to 256
14,CC(C)OC(=O)Nc1ccc(-c2c(C#N)c3ccc(OC4CCS(=O)(=O)CC4)cc3n2C(C)C)cc1 [Compound 3236],173 to 190
15,N#Cc1nccnc1Oc1ccc2c(C#N)c(-c3ccc(NS(=O)(=O)CC4CCC4)cc3)n(CC3CC3)c2c1 [Compound 3238],205 to 208
16,N#Cc1nccnc1Oc1ccc2c(C#N)c(-c3ccc(NS(=O)(=O)C4CC4)cc3)n(CC3CC3)c2c1 [Compound 3239],193 to 196
17,CCCS(=O)(=O)Nc1ccc(-c2c(C#N)c3ccc(-c4ncccc4C#N)cc3n2C2CCC2)cc1 [Compound 3244],223 to 225

# The next lines start with the values.
row,melting point [°C],SMILES
1,174 to 179,Cc1cc(Cl)ccc1Nc1ccc(-c2c(C#N)c3ccc(OC4CCOCC4)cc3n2C2CCC2)cc1 [Compound 3161]
2,148 to 152,CC(=O)c1cccc(Nc2ccc(-c3c(C#N)c4ccc(OC5CCOCC5)cc4n3C3CCC3)cc2)c1 [Compound 3162]
3,211 to 212,N#Cc1c(-c2ccc(Nc3ccccn3)cc2)n(C2CCC2)c2cc(OC3CCOCC3)ccc12 [Compound 3163]
4,210 to 212,N#Cc1c(-c2ccc(Nc3cccnc3)cc2)n(C2CCC2)c2cc(OC3CCOCC3)ccc12 [Compound 3165]
5,209 to 213,N#Cc1c(-c2ccc(Nc3ncccn3)cc2)n(C2CCC2)c2cc(OC3CCOCC3)ccc12 [Compound 3166]
6,168 to 169,N#Cc1c(-c2ccc(Oc3ncccn3)cc2)n(C2CCC2)c2cc(OC3CCOCC3)ccc12 [Compound 3167]
7,167 to 170,N#Cc1c(-c2ccc(Oc3cnccn3)cc2)n(C2CCC2)c2cc(OC3CCOCC3)ccc12 [Compound 3168]
8,147 to 149,N#Cc1c(-c2ccc(Oc3ccccn3)cc2)n(C2CCC2)c2cc(OC3CCOCC3)ccc12 [Compound 3169]
9,192 to 194,CCNC(=O)Oc1ccc2c(C#N)c(-c3ccc(NC(=O)O[C@H](C)C4CC4)cc3)n(C3CCC3)c2c1 [Compound 3170]
10,203 to 206,C[C@@H](OC(=O)Nc1ccc(-c2c(C#N)c3ccc(OC(=O)NCCc4ccccc4)cc3n2C2CCC2)cc1)C1CC1 [Compound 3173]
11,209 to 211,N#C/N=C(/Nc1ccc(-c2c(C#N)c3ccc(OC4CCOCC4)cc3n2C2CCC2)cc1)NC1CCCCC1 [Compound 3176]
12,250 to 252,N#Cc1c(-c2ccc(Nc3nc(C(F)(F)F)cs3)cc2)n(C2CCC2)c2cc(OC3CCOCC3)ccc12 [Compound 3177]
13,240 to 241,CC(C)(C)c1csc(Nc2ccc(-c3c(C#N)c4ccc(Oc5ncccn5)cc4n3C3CCC3)cc2)n1 [Compound 3179]
14,259 to 264,CCS(=O)(=O)Nc1ccc(-c2c(C#N)c3ccc(OC4CCS(=O)(=O)CC4)cc3n2C2CCC2)cc1 [Compound 3184]
15,279 to 285,N#Cc1c(-c2ccc(NS(=O)(=O)C3CC3)cc2)n(C2CCC2)c2cc(OC3CCS(=O)(=O)CC3)ccc12 [Compound 3185]
16,226 to 231,C[C@@H](OC(=O)Nc1ccc(-c2c(C#N)c3ccc(OC4CCS(=O)(=O)CC4)cc3n2C2CCC2)cc1)C1CC1 [Compound 3186]

row,melting point [°C],SMILES
1,243 to 249,C[C@@H](OC(=O)Nc1ccc(-c2c(C#N)c3ccc(OC4CCS(=O)(=O)CC4)cc3n2C2CCC2)cc1)C(F)(F)F [Compound 3187]
2,241 to 245,N#Cc1c(-c2ccc(Nc3nc(C(F)(F)F)cs3)cc2)n(C2CCC2)c2cc(Oc3ncccn3)ccc12 [Compound 3189]
3,227 to 229,C[C@@H](OC(=O)Nc1ccc(-c2c(C#N)c3ccc(Oc4nccnc4C#N)cc3n2C2CCC2)cc1)C1CC1 [Compound 3191]
4,205 to 210,C[C@@H](OC(=O)Nc1ccc(-c2c(C#N)c3ccc(OC4CCS(=O)(=O)CC4)cc3n2C2CC2)cc1)C1CC1 [Compound 3199]
5,199 to 201,Cc1csc(Nc2ccc(-c3c(C#N)c4ccc(OCCF)cc4n3C3CCC3)cc2)n1 [Compound 3205]
6,234 to 236,N#Cc1c(-c2ccc(Nc3nc(-c4ccc(F)cc4)cs3)cc2)n(C2CCC2)c2cc(OCCF)ccc12 [Compound 3206]
7,116 to 118,N#Cc1c(-c2ccc(Nc3nc(C(F)(F)F)cs3)cc2)n(C2CCC2)c2cc(OCCF)ccc12 [Compound 3207]
8,195 to 197,CC(C)Nc1ccc(-c2c(C#N)c3ccc(Oc4ncccc4C#N)cc3n2C2CC2)cc1 [Compound 3213]
9,180 to 187,N#Cc1c(-c2ccc(N3CCCCS3(=O)=O)cc2)n(C2CCC2)c2cc(OC3CCOCC3)ccc12 [Compound 3218]
10,278 to 282,CC(C)OC(=O)Nc1ccc(-c2c(C#N)c3ccc(OC4CCS(=O)(=O)CC4)cc3n2C2CC2)cc1 [Compound 3232]
11,121 to 124,N#Cc1c(-c2ccc(NCCCc3ccccc3)cc2)n(C2CCC2)c2cc(OCCF)ccc12 [Compound 3240]
12,169 to 173,N#Cc1c(-c2ccc(NCC3CCCCC3)cc2)n(C2CCC2)c2cc(OCCF)ccc12 [Compound 3241]
13,183 to 185,C[C@@H](OC(=O)Nc1ccc(-c2c(C#N)c3ccc(-c4ncccc4C#N)cc3n2C2CCC2)cc1)C1CC1 [Compound 3243]
14,243 to 250,C[C@@H](OC(=O)Nc1ccc(-c2c(C#N)c3ccc(OC4CCS(=O)(=O)CC4)cc3n2C2CCCC2)cc1)C1CC1 [Compound 3245]
15,223 to 227,CC(C)OC(=O)Nc1ccc(-c2c(C#N)c3ccc(OC4CCS(=O)(=O)CC4)cc3n2C2CCCC2)cc1 [Compound 3246]
